Structures are written as SMILES. pIC50: −log10 of the molar value.

A word on the pIC50: it is −log10 of the IC50, conventionally taken in molar units.

Holding throughout (type): cell-based
Assay [1] deals with human melanoma cells A375 (with a mutated B-RAF). Briefly: In vitro cell proliferation assay, A375. The settings on record: A-375, 72 hours treatment, cellular ATP readout. As to the method:
(§1) In Vitro Cell Proliferation Assay
(§2) Exponentially growing human melanoma cells A375 (with a mutated B-RAF) and human melanoma cells Mewo (with wild-type B-Raf) were seeded and incubated at 37° C. in a humidified 5% CO2 atmosphere. After 24 hours, scalar doses of the compound were added to the medium and cells oncubated for 72 hours. At the end of treatment, cells were washed and counted. Cell number was determined by a cellular adenosine triphosphate monitoring system. Cell proliferation was compared to control cells and the concentration inhibiting cell growth by 50% was calculated.

Assay [2] has as its system human melanoma cells Mewo (with wild-type B-Raf). Put plainly: In vitro cell proliferation assay, Mewo. The settings on record: 72 hours treatment, cellular ATP readout. The protocol:
as §1, §2

Assay [3] deals with p-MAPK (T202/Y204) in A375 human melanoma cells, having a mutated B-RAF. Briefly: p-MAPK (T202/Y204) ArrayScan assay. The settings on record: A-375, treated 1.5 or 2 hours, p-MAPK cytoplasmatic fluorescence, read-out: Array Scan A375 IC50. As to the method: p-MAPK (T202/Y204) ArrayScan Assay
A375 human melanoma cells, having a mutated B-RAF, are seeded in 384-well poly-lysine coated plates (Matrix) at a density of 1000 cells/well with appropriate medium supplemented with 10% FCS and incubated for 16-24 hours. Cells are treated for 1.5 or 2 hours with increasing doses of compounds (starting dose 10 μM, dilution factor 2.5). At the end of the treatment cells are fixed with p-formaldehyde 3.7% for 15-30 min, then washed twice with D-PBS […] and permeabilized with D-PBS containing 0.1% Triton X-100 and 1% BSA (Sigma-Aldrich) for 15 minutes at room temperature (staining solution). Anti-phospho-MAPK (T202/Y204) monoclonal antibody E10 (Cell Signaling, cat. #9106) diluted 1:100 is added in staining solution and incubated for 1 hour at 37° C. After removal of the primary antibody solution, the anti-mouse Cy™2-conjugated (Green) secondary antibody (Amersham) diluted 1:500 in staining solution containing 2 μg/ml DAPI is added. The plate is incubated for 1 hour at 37° C., washed twice and then red with Cellomics' ArrayScan VTI (4 fields/well, CytoNucTrans algorithm).
The parameter “MEAN_RingAvgIntenCh2”, which measures the mean cytoplasmatic fluorescence intensity associated to p-MAPK staining, is reported as the final result.

For `O=C(Nc1ccc(C(F)(F)F)cc1)Nc1cccc(-c2n[nH]cc2-c2ccncc2)c1` [Cmpd. 1, 1-[3-(4-Pyridin-4-yl-1H-pyrazol-3-yl)-phenyl]-3-(4-trifluoromethyl-phenyl)-urea], the values for the pIC50 in assay [1], in assay [2] and in assay [3] were 5.99, 5.07 and 6.03, respectively.
For `O=S(=O)(Nc1cccc(-c2n[nH]cc2-c2ccncc2)c1)c1cc(F)ccc1F` [Cmpd. 2, 2,5-Difluoro-N-[3-(4-pyridin-4-yl-1H-pyrazol-3-yl)-phenyl]-benzenesulfonamide] the same measures were 5.85, less than 5.00 and 6.19.
Regarding `CC(C)(C)c1ccc(NC(=O)c2cccc(-c3n[nH]cc3-c3ccncc3)c2)cc1` [Cmpd. 4, N-(4-tert-Butyl-phenyl)-3-(4-pyridin-4-yl-1H-pyrazol-3-yl)-benzamide], the results for the pIC50 in assay [1], in assay [2] and in assay [3] were 5.64, 5.23 and 5.90, respectively.
As for `O=C(Nc1cccc(-c2nn(CCF)cc2-c2ccncc2)c1)Nc1ccc(Cl)c(C(F)(F)F)c1` [Cmpd. 5, 1-(4-Chloro-3-trifluoromethyl-phenyl)-3-{3-[1-(2-fluoro-ethyl)-4-pyridin-4-yl-1H-pyrazol-3-yl]-phenyl}-urea], the pIC50 in assay [1] was 5.37; in assay [2], 5.17; in assay [3], 5.68.
As for `O=S(=O)(Nc1cccc(-c2n[nH]cc2-c2ccncc2)c1)c1ccco1` [Cmpd. 6, Furan-2-sulfonic acid [3-(4-pyridin-4-yl-1H-pyrazol-3-yl)-phenyl]amide], the pIC50 in assay [1] was 5.12; in assay [2] it was less than 5.00; in assay [3], 5.26.
Regarding `O=S(=O)(Nc1cccc(-c2n[nH]cc2-c2ccncc2)c1)c1ccsc1` [Cmpd. 7, Thiophene-3-sulfonic acid [3-(4-pyridin-4-yl-1H-pyrazol-3-yl)-phenyl]-amide], the pIC50 in assay [1] was 5.13; in assay [2], less than 5.00; in assay [3], 5.26.
Taken in the same sequence, the figures for `O=C(Nc1ccc(C(F)(F)F)cc1)Nc1cccc(-c2nn(CCF)cc2-c2ccncc2)c1` [Cmpd. 13, 1-{3-[1-(2-Fluoro-ethyl)-4-pyridin-4-yl-1H-pyrazol-3-yl]-phenyl}-3-(4-trifluoromethyl-phenyl)-urea] were 5.86, 5.09 and 6.25.
As to `O=C(Nc1ccc(C(F)(F)F)cc1)Nc1cccc(-c2nn(CCO)cc2-c2ccncc2)c1` [Cmpd. 14, 1-{3-[1-(2-Hydroxy-ethyl)-4-pyridin-4-yl-1H-pyrazol-3-yl]-phenyl}-3-(4-trifluoromethyl-phenyl)-urea], the pIC50 is 5.16 in assay [1], less than 5.00 in assay [2] and 5.58 in assay [3].
For the compound `O=C(Cc1ccc(C(F)(F)F)cc1)Nc1cccc(-c2n[nH]cc2-c2ccncc2)c1` [Cmpd. 16, N-[3-(4-Pyridin-4-yl-1H-pyrazol-3-yl)-phenyl]-2-(4-trifluoromethyl-phenyl)-acetamide], the pIC50 in assay [1] was 5.54; in assay [2] it was less than 5.00; in assay [3], 5.87.
Taken in the same sequence, the figures for `CC(=O)Nc1cc(-c2c[nH]nc2-c2cccc(NC(=O)Nc3ccc(C(F)(F)F)cc3)c2)ccn1` [Cmpd. 17, N-[4-(3-{3-[3-(4-Trifluoromethyl-phenyl)-ureido]-phenyl}-1H-pyrazol-4-yl)-pyridin-2-yl]-acetamide] were 6.60, 5.03 and greater than 7.40.
In the case of `O=S(=O)(Nc1ccc(F)c(-c2n[nH]cc2-c2ccncc2)c1F)c1cc(F)ccc1F` [Cmpd. 18, N-[2,4-Difluoro-3-(4-pyridin-4-yl-1H-pyrazol-3-yl)-phenyl]-2,5-difluoro-benzenesulfonamide], the pIC50 in assay [1] was 6.14; in assay [2], less than 5.00; in assay [3], 6.44.
`O=S(=O)(Nc1ccc(F)c(-c2n[nH]cc2-c2ccncc2)c1F)c1ccsc1` [Cmpd. 19, Thiophene-3-sulfonic acid [2,4-difluoro-3-(4-pyridin-4-yl-1H-pyrazol-3-yl)-phenyl]-amide]: the pIC50 in assay [1] is 5.50; in assay [2], less than 5.00; in assay [3], 6.08.
Take `O=S(=O)(Nc1ccc(F)c(-c2n[nH]cc2-c2ccncc2)c1F)c1ccco1` [Cmpd. 20, Furan-2-sulfonic acid [2,4-difluoro-3-(4-pyridin-4-yl-1H-pyrazol-3-yl)-phenyl]amide]: the figures for the negative-log IC50 (pIC50) in assay [1], in assay [2] and in assay [3] were 5.04, less than 5.00 and 5.26, respectively.
`CCCS(=O)(=O)Nc1ccc(F)c(-c2n[nH]cc2-c2ccncc2)c1F` [Cmpd. 21, Propane-1-sulfonic acid [2,4-difluoro-3-(4-pyridin-4-yl-1H-pyrazol-3-yl)-phenyl]-amide]: the pIC50 in assay [1] was 5.37; in assay [2], less than 5.00; in assay [3], 5.75.
As for `CCOC(=O)n1cc(-c2ccncc2)c(-c2cccc(NC(=O)Nc3ccc(C(F)(F)F)cc3)c2)n1` [Cmpd. 47, 4-Pyridin-4-yl-3-{3-[3-(4-trifluoromethyl-phenyl)-ureido]-phenyl}-pyrazole-1-carboxylic acid ethyl ester], the pIC50 was 5.58 in assay [1], less than 5.00 in assay [2] and 6.12 in assay [3].
Consider `Cn1cc(-c2ccncc2)c(-c2cccc(NC(=O)Nc3ccc(C(F)(F)F)cc3)c2)n1` [Cmpd. 48, 1-[3-(1-Methyl-4-pyridin-4-yl-1H-pyrazol-3-yl)-phenyl]-3-(4-trifluoromethyl-phenyl)-urea], for which the pIC50 is 5.41 in assay [1], less than 5.00 in assay [2] and 5.75 in assay [3].
For `CC(C)Cn1cc(-c2ccncc2)c(-c2cccc(NC(=O)Nc3ccc(C(F)(F)F)cc3)c2)n1` [Cmpd. 50, 1-[3-(1-Isobutyl-4-pyridin-4-yl-1H-pyrazol-3-yl)-phenyl]-3-(4-trifluoromethyl-phenyl)-urea], the results for the pIC50 in assay [1], in assay [2] and in assay [3] were 5.72, 5.29 and 5.95, respectively.
Taken in the same sequence, the figures for `CCn1cc(-c2ccncc2)c(-c2c(F)ccc(NS(=O)(=O)c3cc(F)ccc3F)c2F)n1` [Cmpd. 51, N-[3-(1-Ethyl-4-pyridin-4-yl-1H-pyrazol-3-yl)-2,4-difluoro-phenyl]-2,5-difluoro-benzenesulfonamide] were greater than 7.70, less than 5.00 and greater than 8.00.
Taken in the same sequence, the figures for `CCn1cc(-c2ccncc2)c(-c2c(F)ccc(NS(=O)(=O)c3ccccc3F)c2F)n1` [Cmpd. 57, N-[3-(1-Ethyl-4-pyridin-4-yl-1H-pyrazol-3-yl)-2,4-difluoro-phenyl]-2-fluoro-benzenesulfonamide] were 6.48, less than 5.00 and 7.70.
For `CCn1cc(-c2ccncc2)c(-c2c(F)ccc(NS(=O)(=O)c3cccc(F)c3)c2F)n1` [Cmpd. 58, N-[3-(1-Ethyl-4-pyridin-4-yl-1H-pyrazol-3-yl)-2,4-difluoro-phenyl]-3-fluoro-benzenesulfonamide] the same measures were 6.54, less than 5.00 and 7.40.
For `Cc1ccc(NC(=O)Nc2cccc(-c3n[nH]cc3-c3ccncc3)c2)cc1` [compound 8, 1-[3-(4-Pyridin-4-yl-1H-pyrazol-3-yl)-phenyl]-3-p-tolyl-urea], the pIC50 was 5.35 in assay [1], less than 5.00 in assay [2] and 5.84 in assay [3].
Taken in the same sequence, the figures for `O=C(Nc1ccc(Cl)cc1)Nc1cccc(-c2n[nH]cc2-c2ccncc2)c1` [compound 9, 1-(4-Chloro-phenyl)-3-[3-(4-pyridin-4-yl-1H-pyrazol-3-yl)-phenyl]-urea] were 5.39, less than 5.00 and 5.32.
Taken in the same sequence, the figures for `CCn1cc(-c2ccncc2)c(-c2cccc(NC(=O)Nc3ccc(C(F)(F)F)cc3)c2)n1` [compound 10, 1-[3-(1-Ethyl-4-pyridin-4-yl-1H-pyrazol-3-yl)-phenyl]-3-(4-trifluoromethyl-phenyl)-urea] were 5.79, 5.12 and 6.27.
Taken in the same sequence, the figures for `N#CCn1cc(-c2ccncc2)c(-c2cccc(NC(=O)Nc3ccc(C(F)(F)F)cc3)c2)n1` [compound 11, 1-[3-(1-Cyanomethyl-4-pyridin-4-yl-1H-pyrazol-3-yl)-phenyl]-3-(4-trifluoromethyl-phenyl)-urea] were 5.95, 5.11 and 6.64.
Turning to `Nc1cc(-c2c[nH]nc2-c2cccc(NC(=O)Nc3ccc(C(F)(F)F)cc3)c2)ccn1` [compound 12, 1-{3-[4-(2-aminopyridin-4-yl)-1H-pyrazol-3-yl]phenyl}-3-[4(trifluoromethyl)-phenyl]urea], the pIC50 was 5.22 in assay [1], less than 5.00 in assay [2] and 5.33 in assay [3].
